In patent US8604198B2, “Salt of proline derivative, solvate thereof, and production method thereof” (Mitsubishi Tanabe Pharma Corporation, priority 2005, dated 2013):

Key:
Type in all cases: physicochemical
[1] = Measurement of solubility at pH 9-13 (HPLC)
Method: Using 0.2 mol/L NaOH/0.1 mol/L NaCl mixed solution as a test solution, the solubility of the title compound of Example 3 having a pH of 9-13 at room temperature was analyzed by liquid chromatography (HPLC) (n=3). […] From the foregoing, the solubility of the title compound of Example 3 was concluded to be about 7 mg/mL.

[2] = Measurement of solubility in water (visual observation); details: 37° C., shaken 1 hr
Method: As a measurement method, visual observation was used, which permits convenient evaluation of rough solubility with a small amount of sample. The temperature during measurement was 37° C. About 3 mg of the title compound of Example 3 was taken in a sample bottle with a screw cap, a test solution (0.15 mL) was added and the cap was screwed tightly thereon. The sample was ultrasonicated for 1 min to give a dispersion, which was placed in a shaking-type thermostat water bath stabilized at 37° C. and shaken for 1 hr. Then, dissolution was confirmed by visual observation.

[3] = Measurement of hygroscopicity (moisture adsorption measurement); details: 25° C., reduced pressure type moisture adsorption measurement apparatus
Method: The hygroscopicity of the title compound of Example 3 was measured under the following conditions using a moisture adsorption measurement apparatus. • apparatus: MB-300G manufactured by VTI • measurement temperature: 25° C. • measurement range: 0-95% RH
The title compound of Example 3 was subjected to a moisture adsorption measurement using a reduced pressure type moisture adsorption measurement apparatus.

Br.Br.Br.Br.Br.Cc1cc(N2CCN([C@@H]3CN[C@H](C(=O)N4CCSC4)C3)CC2)n(-c2ccccc2)n1.Cc1cc(N2CCN([C@@H]3CN[C@H](C(=O)N4CCSC4)C3)CC2)n(-c2ccccc2)n1 [Example 3, 3-{(2S,4S)-4-[4-(3-methyl-1-phenyl-1H-pyrazol-5-yl)piperazin-1-yl]pyrrolidin-2-ylcarbonyl}thiazolidine 2.5 hydrobromide]
Solubility ([1]; pH 8.81, 25° C.): 8.4 mg/mL
solubility (concluded) ([1]; pH 9-13, room temperature, conclusion from the measured range): about 7 mg/mL
Solubility ([1]; pH 11.94, 25° C.): 7.2 mg/mL
Solubility ([1]; pH 11.98, 25° C.): 7.9 mg/mL
Solubility ([1]; pH 12.10, 25° C.): 7.2 mg/mL
Solubility ([1]; pH 12.26, 25° C.): 7.8 mg/mL
Solubility ([1]; pH 12.70, 25° C.): 6.4 mg/mL
Solubility ([1]; pH 12.99, 25° C.): 6.8 mg/mL
solubility in water [2]: not less than 20 mg/mL
state of water content ([3]; 0% RH): almost completely dry
water maintained, corresponding to hydrate ([3]; 50% RH): 1.8 hydrate
